Data as given in US20250195561A1, “A CATIONIC DENDRIMER FOR IMPROVING ANTIBIOTIC EFFICACY OF AN ANTIBIOTIC” (GAMA HEALTHCARE LTD, priority 2022, published 2025).
In brackets after ≈: the same amount, converted by molar mass. Where two headings read alike, the source gives them in different places.

Tests used:
Format in all cases: cell-based
[1] = test system: Pseudomonas aeruginosa strain PS3; assay: Antibiotic disc diffusion assay (zone of inhibition); details: antibiotic disc on Iso-Sensitest agar, 37° C., 20 hours, ±Stdev, n = 2
Description: (§1) The antibiotic disc diffusion assay was performed as described previously to determine the antibiotic susceptibility of the two strains. Briefly, a standardised suspension of the two Pseudomonas strains was used to inoculate Iso-Sensitest agar (ISA) plates to yield semi-confluent growth of each organism. Antibiotic discs containing Gentamicin and Imipenem were applied to the inoculated plates, then incubated at 37° C. for 20 hours. Zones of inhibition were measured to the nearest millimetre.

[2] = test system: Pseudomonas aeruginosa strain PA01; assay: as above; details: antibiotic disc on Iso-Sensitest agar, 37° C., 20 hours, ±Stdev, n = 2
Description: as §1

[3] = test system: Pseudomonas aeruginosa strain PS3; assay: 96-well broth dilution test (MIC) in presence and absence of dendrimer; details: for MIC: MHB, 37° C., 24 hours; for Reduction (%) in MIC: with dendrimer (0.1%) versus antibiotic alone
Description: (§2) Briefly, a standard suspension of the two Pseudomonas strains was prepared in Mueller Hinton Broth (MHB), then added to varying concentrations of antibiotic in a 96-well plate. Tests were performed either in the presence or absence of dendrimer (final concentration 0.1%). 96-well plates were incubated at 37° C. for 24 hours, with optical density (620 nm) of cultures monitored over this period using a Multiskan EX plate reader (Thermo Labsystems).

[4] = test system: Pseudomonas aeruginosa strain PA01; assay: as above; details: for MIC: MHB, 37° C., 24 hours; for Reduction (%) in MIC: with dendrimer (0.1%) versus antibiotic alone
Description: as §2

[5] = presence of dendrimer (final concentration 0.1%)

C[C@@H](O)[C@H]1C(=O)N2C(C(=O)O)=C(SCCN=CN)C[C@H]12 [Imipenem]
Zone of inhibition [1]: 35 (±0.0) Mm
Zone of inhibition [2]: 12 (±2.8) Mm
MIC ([3]; Pseudomonas aeruginosa, PS3, 24 h, absence of dendrimer, read-out: MIC): 51.1 µg/mL (≈ 171 µM)
MIC ([3]; Pseudomonas aeruginosa, PS3, 24 h, presence of dendrimer (final concentration 0.1%), read-out: MIC): < 0.011 µg/mL
Reduction (%) in MIC [3]: > 99.9%
MIC ([4]; Pseudomonas aeruginosa, PA01, 24 h, absence of dendrimer, read-out: MIC): 28.3 µg/mL (≈ 94.6 µM)
MIC ([4]; Pseudomonas aeruginosa, PA01, 24 h, presence of dendrimer (final concentration 0.1%), read-out: MIC): < 0.011 µg/mL
Reduction (%) in MIC [4]: > 99.9%

Gentamicin
Zone of inhibition [1]: 46 (±0.7) Mm
Zone of inhibition [2]: 38 (±1.4) Mm
MIC ([3]; absence of dendrimer): 1.45 µg/mL
MIC [3, 5]: 0.32 µg/mL
Reduction (%) in MIC [3]: 78%
MIC ([4]; absence of dendrimer): 4.64 µg/mL
MIC [4, 5]: 1.34 µg/mL
Reduction (%) in MIC [4]: 71%
